This note sets out measurements from US7923465B2, “Cannabinoid receptor ligands, pharmaceutical compositions containing them, and process for their preparation” (priority 2005, dated 2011).

In data set [1] the target is T1, CB1 (Rattus norvegicus, UniProt P20272). Nature of the data set: Rat CB1 receptor binding using brain membrane, [3H]SR141716A displacement (Protocol I). On the set-up: CB1 receptor present in a rat brain membrane preparation; from tissue; host or cells: rat brain membrane; inhibition: dose or concentration left out as unconfirmed. The conditions noted are these: for inhibition: 1 h.
T1 sequence (P20272 whole entry): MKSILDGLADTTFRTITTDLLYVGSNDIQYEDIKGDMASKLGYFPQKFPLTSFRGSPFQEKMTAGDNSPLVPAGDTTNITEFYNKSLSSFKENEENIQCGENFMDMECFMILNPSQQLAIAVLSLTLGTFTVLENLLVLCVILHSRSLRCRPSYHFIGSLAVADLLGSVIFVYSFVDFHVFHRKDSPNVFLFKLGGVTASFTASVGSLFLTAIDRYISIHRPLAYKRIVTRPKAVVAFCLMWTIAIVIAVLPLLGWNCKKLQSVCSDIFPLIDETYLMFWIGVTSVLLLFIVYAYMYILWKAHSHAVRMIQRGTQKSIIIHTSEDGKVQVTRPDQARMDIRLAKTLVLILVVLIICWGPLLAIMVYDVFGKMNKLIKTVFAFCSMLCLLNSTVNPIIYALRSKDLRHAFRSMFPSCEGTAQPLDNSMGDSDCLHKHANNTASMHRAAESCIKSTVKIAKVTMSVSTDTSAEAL

For data set [2], the target named is T1, CB1. Put plainly: GTPγS binding assay, CB1 functional assay in rat cerebellar membrane (Protocol VIII). The data set is classed as biochemical. On the set-up: 10 μg rat cerebellum membrane; from tissue; host or cells: rat cerebellum membrane, prepared in-house. The conditions noted are these: for activation at 1 µM: 1 h, read-out: Per Se % Stimulation; for inhibition at 1 µM: read-out: % Inhibition of WIN-55212-2 induced stimulation. The method in brief:
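Rat cerebellar membranes (10 μg) incubated 1 h at 30 °C with 0.2 nM [35S]GTPγS, 50 μM GDP, and compound at 1 μM or 300 nM, alone or with 1 μM WIN 55,212-2, in Tris/MgCl2/EGTA/NaCl pH 7.4. Filter-bound radioactivity counted; percent stimulation calculated against basal specific binding (nonspecific defined by 10 μM GTPγS).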
In general terms: GTPγS is a poorly hydrolysed GTP analogue; its binding reports G protein activation.

The next data set deals with hCB1 (Homo sapiens, UniProt P21554). Put plainly: Antagonism of CB1 receptors expressed in CHO cells, cAMP assay against CP 55,940 (Protocol IX.1). The data set is classed as cell-based. On the set-up: expressed in transfected cells; host or cells: CHO (h-CB1/CHO, G418-selected). The conditions noted are these: h-CB1/CHO cells, cAMP, vs 30 nM CP 55,940; for inhibition at 10 µM: read-out: hCB1 Antagonism. (Cyclic AMP is a second messenger, typically raised through Gs and lowered through Gi signalling.)
hCB1, sequence (P21554 whole entry): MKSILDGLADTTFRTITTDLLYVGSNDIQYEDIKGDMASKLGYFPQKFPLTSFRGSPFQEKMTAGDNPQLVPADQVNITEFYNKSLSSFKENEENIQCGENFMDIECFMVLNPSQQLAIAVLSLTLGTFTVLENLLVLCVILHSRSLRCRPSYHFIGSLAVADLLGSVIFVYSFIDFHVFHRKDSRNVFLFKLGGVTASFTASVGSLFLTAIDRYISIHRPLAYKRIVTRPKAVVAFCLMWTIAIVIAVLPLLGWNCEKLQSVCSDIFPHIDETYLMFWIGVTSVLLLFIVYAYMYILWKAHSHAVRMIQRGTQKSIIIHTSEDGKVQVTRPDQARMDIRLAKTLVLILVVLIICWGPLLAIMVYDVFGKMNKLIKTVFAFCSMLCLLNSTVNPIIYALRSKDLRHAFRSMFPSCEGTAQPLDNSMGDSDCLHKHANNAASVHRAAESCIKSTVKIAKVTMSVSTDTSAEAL

The mark [3] stands for this setting: rat brain membrane, [3H]SR141716A displacement, read-out: % Displacement Protocol I.
The mark [4] stands for this setting: GTPγS binding over basal, rat cerebellar membrane, tested at 1 uM.
[5] abbreviates: GTPγS binding, tested at 1 uM in presence of 1 μM WIN 55,212-2.

Like-named read-outs stand apart in the source and are kept apart here.

Take `O=C(NNc1ccc(Cl)cc1Cl)c1nn(-c2ccc(Cl)cc2Cl)c2c1C1CCC2C1` (stereo not shown) [Example 260, N(3)-[(2,4-Dichlorophenyl)amino]-1-(2,4-dichlorophenyl)-4,5,6,7-tetrahydro-1H-4,7-methano-indazole-3-carboxamide]: on CB1 [1] (setting [3]), the inhibition turned out to be 84.4%. Further, on CB1 [2] (setting [4]), the activation at 1 µM is 38%. At CB1 [2] (setting [5]), the inhibition at 1 µM turned out to be 78.8%.
For `O=C(NN1CCCCC1)c1nn(-c2ccc(Cl)cc2)c2c1C1CC3CC(C1)CC2C3` [Example 140, N(7)-Piperidino-5-(4′-chlorophenyl)-5,6-diazatetracyclo[7.3.1.1^3,11.0^4,8]tetradeca-4(8)-6-diene-7-carboxamide], the “% Displacement Protocol I” value on CB1 [1] (rat brain membrane, [3H]SR141716A displacement) is on record as 50.4%. The “Per Se % Stimulation” value on CB1 [2] (setting [4]) worked out at 24.9%. The “% Inhibition of WIN-55212-2 induced stimulation” value at CB1 [2] (setting [5]) is recorded as 71.9%. Also, the “hCB1 Antagonism” value at hCB1 (at 10 uM) amounted to 19.31% at.
Usually melting point stands for the temperature, or range, at which the solid turns liquid. In the case of `O=C(NCc1ccc(Cl)cc1Cl)c1nn(-c2ccc(Cl)cc2Cl)c2c1C1CCC2C1` (stereo not shown) [Example 251, N(3)-(2,4-Dichlorobenzyl)-1-(2,4-dichlorophenyl)-4,5,6,7-tetrahydro-1H-4,7-methano-indazole-3-carboxamide], the melting point fell in the range of 57 to 59 °C. Moreover, the inhibition on CB1 [1] (setting [3]) was 42.3%. Moreover, the inhibition at 10 µM on hCB1 (at 10 uM) worked out at 0%.
`CN(NC(=O)c1nn(-c2ccc(Cl)cc2)c2c1C1CCC2C1)C1CCCCC1` (stereo not shown) [Example 213, N(3)-[(N-Cyclohexyl-N-methyl)amino]-1-(4-chlorophenyl)-4,5,6,7-tetrahydro-1H-4,7-methano-indazole-3-carboxamide]: the melting point came to 62 °C. Besides, the inhibition at CB1 [1] (setting [3]) was 48.5%. The inhibition at 10 µM at hCB1 (at 10 uM) came to 0%.
`O=C(NNc1ccccc1Br)c1nn(-c2ccc(Cl)cc2Cl)c2c1C1CCC2C1` (stereo not shown) [Example 263, N(3)-[(2-Bromophenyl)amino]-1-(2,4-dichlorophenyl)-4,5,6,7-tetrahydro-1H-4,7-methano-indazole-3-carboxamide] yielded a melting point of 159 °C. Further, the inhibition on CB1 [1] (setting [3]) was 69.1%. For the same compound, on hCB1 (at 1 uM), the inhibition at 1 µM was 72.1%.
`O=C(NCc1ccccc1Cl)c1nn(-c2ccc(Cl)cc2)c2c1C1CCC2C1` (stereo not shown) [Example 221, N(3)-(2-Chlorobenzyl)-1-(4-chlorophenyl)-4,5,6,7-tetrahydro-1H-4,7-methano-indazole-3-carboxamide]: the melting point lay in the range of 119 to 122 °C. Besides, the inhibition at CB1 [1] (read-out: % Displacement Protocol I, rat brain membrane, [3H]SR141716A displacement) came out at 68.6%. The activation at 1 µM on CB1 [2] (setting [4]) was -16.7%. In addition, at CB1 [2] (setting [5]), the inhibition at 1 µM was 95.7%. In addition, the inhibition at 10 µM on hCB1 (at 10 uM) was determined as 0%.
Regarding `O=C(NC1CCCCC1)c1nn(-c2ccc(Br)cc2)c2c1C1CCC2C1` (stereo not shown) [Example 275, N(3)-Cyclohexyl-1-(4-bromophenyl)-4,5,6,7-tetrahydro-1H-4,7-methano-indazole-3-carboxamide], the melting point stood at 164 °C. For the same compound, the inhibition at CB1 [1] (setting [3]) was 38.8%. Further, the inhibition at 10 µM at hCB1 (at 10 uM) came out at 0%.
In turn, `O=C(NNc1ccccc1Cl)c1nn(-c2ccc(Cl)cc2Cl)c2c1C1CCC2C1` (stereo not shown) [Example 257, N(3)-[(2-Chlorophenyl)amino]-1-(2,4-dichlorophenyl)-4,5,6,7-tetrahydro-1H-4,7-methano-indazole-3-carboxamide] registered a melting point of 180 to 183 °C. Further, at CB1 [1] (setting [3]), the inhibition is 73.5%. Further, the activation at 1 µM on CB1 [2] (setting [4]) was -5.1%. For the same compound, the inhibition at 1 µM at CB1 [2] (setting [5]) is 48.3%.
